According to PubChem BioAssay AID463203 (Broad Institute, 2010):
Calls of active or inactive are those of the source.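 The calls were made as follows: active = more than half of replicate measurements showing over 20% loss of kinase signal relative to plate controls; inconclusive = some but at most half of replicates over 20% loss; inactive = no replicate over 20% signal loss.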

molecular target: Glycogen synthase kinase-3 alpha (Homo sapiens) (UniProt P49840); assay: concentration-response blocking of human GSK3A – biochemical, luminescence, cell-free homogeneous, retest, dose response (AID 463203); conditions: GSK-3 alpha enzyme, ADP-Glo luminescence, 60 min
Sequence (P49840 whole entry, looked up): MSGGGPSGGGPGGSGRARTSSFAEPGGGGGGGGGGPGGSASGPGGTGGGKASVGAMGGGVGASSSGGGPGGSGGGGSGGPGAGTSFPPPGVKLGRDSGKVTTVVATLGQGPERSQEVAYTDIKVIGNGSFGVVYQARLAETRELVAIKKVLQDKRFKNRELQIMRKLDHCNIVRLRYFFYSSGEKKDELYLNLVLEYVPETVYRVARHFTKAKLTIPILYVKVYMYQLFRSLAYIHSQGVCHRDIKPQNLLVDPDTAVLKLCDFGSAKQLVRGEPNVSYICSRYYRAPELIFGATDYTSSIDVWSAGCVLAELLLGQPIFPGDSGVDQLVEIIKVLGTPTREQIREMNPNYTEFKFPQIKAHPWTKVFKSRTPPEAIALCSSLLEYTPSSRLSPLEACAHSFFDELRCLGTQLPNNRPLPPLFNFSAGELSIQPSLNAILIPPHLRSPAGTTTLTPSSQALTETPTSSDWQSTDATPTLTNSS

Row | SMILES | AC50
1 | Cc1cc(=O)[nH]c2cc(O)ccc12 | > 30 µM (inactive)
2 | O=C(NCc1ccccc1)c1ccc2c(=O)[nH]c3c(C(=O)NCC4CCCO4)sc(=S)n3c2c1 (stereo unspecified) | 14 µM
3 | COc1ccc(/C=N/NC(=O)c2nnn(-c3nonc3N)c2-c2cccs2)cc1OC | 1.41 µM
4 | N#C/C(=N\Nc1ccc(Cl)cc1)C(N)=S | > 30 µM (inactive)
5 | COc1ccc(SCCN2CC[C@@H](C(C)(C)C)CCC2=O)cc1 | 23.6 µM
6 | Cc1csc(NC(=O)C2CCCN2C(=O)OCC(C)C)n1 (stereo unspecified) | > 30 µM (inactive)
7 | CCCCOC(=O)CNc1n[nH]c(=S)[nH]c1=O | > 30 µM (inactive)
8 | Cc1c(CN(C)C)c2c(n1Cc1ccccc1)C(=O)c1ccccc1-2 | > 30 µM (inactive)
9 | Clc1ccccc1/C=N/Nc1cc(N2CCOCC2)ncn1 | > 30 µM (inactive)
10 | Cc1ccc(NC(=O)CSc2nnc(-c3ccncc3)o2)cc1 | > 30 µM (inactive)
11 | O=C(CN1CCOCC1)Nc1cccc(Br)c1 | > 30 µM (inactive)
12 | N#CC1=C(S)N(c2ccccc2)C(c2ccco2)NC1=O (stereo unspecified) | > 30 µM (inactive)
13 | COC1(OC)N=C(N)C2(C#N)C(c3ccc4c(c3)OCO4)C12C#N (stereo unspecified) | 20.1 µM
14 | C=CCc1cc(/C=N/n2cnnc2)cc(OCC)c1O | > 30 µM (inactive)
15 | N#CC1=C2SCN(Cc3ccco3)CN2C(=O)CC1c1ccc(Cl)cc1 (stereo unspecified) | > 30 µM (inactive)
16 | Cc1cc(/C=N\NC(=O)c2cccs2)c(C)n1-c1ccc2ncccc2c1 | > 30 µM (inactive)
17 | O=C(Nc1nc2c(s1)CCCC2)c1ccc(Br)s1 | > 30 µM (inactive)
18 | CC1CN(c2nc(N(C)c3ccccc3)nc(N)c2[N+](=O)[O-])CC(C)O1 (stereo unspecified) | > 30 µM (inactive)
19 | Nc1ncnc2c1ncn2[C@H]1C[C@H](O)[C@@H](CO)O1 | > 30 µM (inactive)
20 | CC(C)c1c(C(=O)N/N=C/c2ccncc2)nnn1-c1nonc1N | > 30 µM (inactive)
21 | CCCCCCCCOC(=O)C1=C(C)Nc2nnnn2C1c1cccs1 (stereo unspecified) | > 30 µM (inactive)
22 | Cc1cc(-c2ccccc2)c2c3c(c(-c4ccccc4)n2n1)c(=O)n(C)c(=O)n3C | > 30 µM (inactive)
23 | COC(=O)c1c(NC(=O)CN2C(=O)NC3(CCCCC3C)C2=O)sc2c1CCC2 (stereo unspecified) | > 30 µM (inactive)
24 | COc1ccc(/C=C/c2nc(N)nc(-c3ccccc3O)n2)cc1OC | > 30 µM (inactive)
25 | N#Cc1cc(Cl)c(NCC2CCCO2)cc1C#N (stereo unspecified) | > 30 µM (inactive)
26 | N/C(=N\OC(=O)c1ccc(Br)cc1)c1cccc([N+](=O)[O-])c1 | > 30 µM (inactive)

Row | SMILES | AC50
27 | COc1ccc2[nH]c(C)c(CN3CCCCC3)c(=O)c2c1 | > 30 µM (inactive)
28 | CC(C)(C)NC(=O)/C(=C\C=C\c1ccccc1)NC(=O)c1ccc([N+](=O)[O-])cc1 | > 30 µM (inactive)
29 | N#Cc1cc(-c2cccc(Cl)c2)c[nH]c1=O | > 30 µM (inactive)
30 | Cc1cc2nc(-c3cccnc3SCC(=O)NC(C)C)[nH]c2cc1C | > 30 µM (inactive)
31 | C#CCOCCOCCOCCNc1nc(N2CCN(C(=O)CCCCCCCCCCNC(=O)[C@H](CCCCN)n3cc(C)nn3)CC2)nc(N2CCN(C(=O)CCCCCCCCCCNC(=O)[C@H](CCCN=C(N)N)n3cc(C[C@@H](C)CC)nn3)CC2)n1 | > 30 µM (inactive)
32 | O=C1NC(=Nc2ccccc2)S/C1=C\c1cccs1 | > 30 µM (inactive)
33 | NC(=O)N/N=C/c1c(O)ccc2oc3c(c12)CCCC3 | 0.845 µM
34 | Cc1onc(-c2ccccc2)c1C(=O)NCCN1CCOCC1 | > 30 µM (inactive)
35 | CCSc1cc(N2CCCC2)nc(-c2ccccc2)n1 | > 30 µM (inactive)
36 | O=C1c2cnc3nc(SCc4cccc(Cl)c4)nn3c2CC2c3ccccc3CCN12 (stereo unspecified) | > 30 µM (inactive)
37 | Cc1c(C(=O)N/N=C/c2ccc(O)c(Br)c2)sc(N)c1C#N | 1.02 µM
38 | CCC(C)[C@H](NC(=O)Nc1ccc(S(N)(=O)=O)cc1)C(=O)O (stereo partly specified) | > 30 µM (inactive)
39 | Cc1cc(=O)[nH]c2c(C)cc(S(=O)(=O)Nc3ccc(O)cc3)cc12 | > 30 µM (inactive)
40 | O=c1oc2cc(O)ccc2c2ccccc12 | > 30 µM (inactive)
41 | CN1/C(=C\C=C\C2=[N+](C)c3ccc4ccccc4c3C2(C)C)C(C)(C)c2ccccc21 | 10.3 µM
42 | C[C@H](NC(=O)c1nc[nH]c1C(=O)NC1CCN(C(=O)OC(C)(C)C)CC1)C(=O)OC(C)(C)C | 31.3 µM
43 | CCN(CC)c1ccc2ccc(=O)oc2c1 | > 30 µM (inactive)
44 | Nc1nc(N)nc(-c2cc([N+](=O)[O-])ccc2O)n1 | 2.41 µM
45 | Nc1nc2n(n1)C(c1ccc(Cl)cc1)CC(c1ccc(F)cc1)N2 (stereo unspecified) | > 30 µM (inactive)
46 | O=[N+]([O-])c1ccc(O)c(CN2CCCCCC2)c1 | > 30 µM (inactive)
47 | Fc1ccc(/C=N/Nc2nc3ccccc3[nH]2)cc1F | > 30 µM (inactive)
48 | COCCNc1nnc(SCC(=O)NC2CCCCC2)s1 | > 30 µM (inactive)
49 | Cc1c(O)ccc2c3c(c(=O)oc12)CCC(C)C3 (stereo unspecified) | > 30 µM (inactive)
50 | Cc1ccc(C(=O)N2NC(c3ccc(F)cc3)C3C(=O)N(c4ccc(C)c(C)c4)C(=O)C32)cc1 (stereo unspecified) | > 30 µM (inactive)
51 | COc1ccc(C2=Nn3c(nnc3-c3ccncc3)SC2)cc1OC | 2.37 µM
